Assay results from ChEMBL document CHEMBL1201862, “PubChem BioAssay data set” (2004).
Calls of active or inactive are those of the source.

How the values were obtained:
[1] = rise of 2N DNA cells, HeLa – IC50, dose response (AID 1117349); assay type: functional, cell-based
[2] = CellTiter-Glo luminescence survival assay, SW480 colon tumor line, concentration-response curve, half-maximal inhibitory concentration (AID 1117338); assay type: functional
[3] = RKO cell viability reduction, dose response, CellTiter-Glo luminescence (AID 1117322); assay type: functional
[4] = cytotoxicity toward HCT116 cells – cell-based, CellTiter-Glo luminescence, IC50, dose response (AID 1117332); assay type: functional; settings: HCT-116
[5] = SNU-C1 cell viability reduction, dose response, CellTiter-Glo luminescence (AID 1117323); assay type: functional, cell-based
[6] = cytotoxicity toward Colo320 cells – cell-based, CellTiter-Glo luminescence, IC50, dose response (AID 1117334); assay type: functional; settings: COLO 320
[7] = rise of 4N DNA cells, HeLa – IC50, dose response (AID 1117351); assay type: functional, cell-based
[8] = cytotoxicity toward HT-29 cells – cell-based, CellTiter-Glo luminescence, IC50, dose response (AID 1117330); assay type: functional
[9] = Reduced DLD-1 viability, concentration-response, CellTiter-Glo luminescence (AID 1117352); assay type: functional
[10] = HCT116 cell viability decrease, GSK3B pretreatment – CellTiter-Glo, IC50, dose response (AID 1117339); assay type: functional; settings: HCT-116
[11] = P. falciparum Dd2 growth inhibitors, dose response, SYBR Green, cherry-picked samples (AID 1159567); assay type: functional, cell-based
[12] = toxicity to human hepatoma HepG2 cells – cell-based, cherry-picked samples, cytotoxicity control, dose response (AID 1159577); assay type: functional
[13] = OVCAR-3 cell viability loss – plate reader, dry powder samples, PAX8 inhibitor project, dose response (AID 743044); assay type: functional, cell-based
[14] = IGROV1 cell killing – plate reader, dry powder samples, PAX8 inhibitor project, dose response (AID 743043); assay type: functional, cell-based; settings: IGROV-1
[15] = OVCAR8 cell viability loss – plate reader, dry powder samples, PAX8 project, dose response (AID 743197); assay type: functional, cell-based; settings: OVCAR-8
[16] = growth inhibition of yeast DHODH-expressing 3D7 parasites – SYBR Green, dry powder samples, dose response (AID 1159570); assay type: functional, cell-based;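 also: parasite growth measured after 72 hours of compound exposure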
[17] = toxicity to human HepG2 hepatoma cells – cell-based, plate reader, dry powder samples, cytotoxicity control, dose response (AID 1159569); assay type: functional;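 also: inhibitor potency with signal falling toward the positive control level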
[18] = Dd2 malaria parasite growth inhibition potency – SYBR Green, dry powder samples, dose response (AID 1159566); assay type: functional, cell-based;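 also: potency for growth inhibition with lower SYBR green DNA signal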
[19] = growth inhibition of PfATP4-mutant resistant parasites – NITD609-resistant line, SYBR Green, dry powder, dose response (AID 1159571); assay type: functional, cell-based;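 also: parasites synchronized at ring stage by sorbitol before testing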
[20] = A549 cell cytotoxicity, dose response, cytotoxicity control, plate reader, cherry-pick, antagonist series (AID 743412); assay type: functional, cell-based
[21] = toxicity toward HepG2 liver cells – cell-based, plate reader, cherry-pick, antagonist series, cytotoxicity control, dose response (AID 743416); assay type: functional
[22] = blockers of bursicon-stimulated LGR2 cAMP reporter – cell-based, HEK293, CRE-luciferase reporter, cherry pick, set 2, dose response (AID 743343); assay type: functional;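 also: transfected cells were stimulated with diluted bursicon conditioned medium after compound addition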
[23] = blockade of melanocortin 4 receptor signaling – cell-based, plate reader, cherry pick, counter-screen for LGR2 antagonist project, dose response (AID 743444); assay type: functional;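 also: transfected HEK 293 cells stimulated with alpha-MSH peptide; potency of inhibitors of the alpha-MSH evoked signal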
Paired box protein Pax-8 = Paired box protein Pax-8 (Homo sapiens, UniProt Q06710); test: PAX8 transcriptional activity inhibition in RMG-I – RMG-I cells, luciferase, cherry-pick, dose response (AID 687027); assay type: functional, cell-based;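 also: luciferase reporter driven by Pax8 target thyroperoxidase promoter measured by SteadyGlo luminescence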
Paired box protein Pax-8, sequence (Q06710 whole entry): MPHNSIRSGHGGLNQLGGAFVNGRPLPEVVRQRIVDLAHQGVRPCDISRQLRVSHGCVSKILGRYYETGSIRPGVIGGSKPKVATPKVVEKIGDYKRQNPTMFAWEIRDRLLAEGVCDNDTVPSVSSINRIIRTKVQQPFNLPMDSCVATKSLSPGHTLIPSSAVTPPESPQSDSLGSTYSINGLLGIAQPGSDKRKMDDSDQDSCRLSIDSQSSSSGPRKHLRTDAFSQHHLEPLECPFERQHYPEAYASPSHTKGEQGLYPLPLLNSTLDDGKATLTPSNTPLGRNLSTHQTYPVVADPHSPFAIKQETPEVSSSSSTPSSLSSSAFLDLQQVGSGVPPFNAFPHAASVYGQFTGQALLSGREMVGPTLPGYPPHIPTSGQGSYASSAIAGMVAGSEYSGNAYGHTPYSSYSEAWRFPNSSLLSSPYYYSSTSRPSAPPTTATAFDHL

Aminopeptidase N = target: T1, Aminopeptidase N (Plasmodium falciparum FcB1/Columbia, UniProt O96935); test: malaria alanyl aminopeptidase activity blockers – biochemical, fluorogenic H-Leu-NHMec substrate, 1536-well (AID 1445); set-up: species or system Plasmodium falciparum 3D7, 3D7
T1 sequence (O96935 whole entry): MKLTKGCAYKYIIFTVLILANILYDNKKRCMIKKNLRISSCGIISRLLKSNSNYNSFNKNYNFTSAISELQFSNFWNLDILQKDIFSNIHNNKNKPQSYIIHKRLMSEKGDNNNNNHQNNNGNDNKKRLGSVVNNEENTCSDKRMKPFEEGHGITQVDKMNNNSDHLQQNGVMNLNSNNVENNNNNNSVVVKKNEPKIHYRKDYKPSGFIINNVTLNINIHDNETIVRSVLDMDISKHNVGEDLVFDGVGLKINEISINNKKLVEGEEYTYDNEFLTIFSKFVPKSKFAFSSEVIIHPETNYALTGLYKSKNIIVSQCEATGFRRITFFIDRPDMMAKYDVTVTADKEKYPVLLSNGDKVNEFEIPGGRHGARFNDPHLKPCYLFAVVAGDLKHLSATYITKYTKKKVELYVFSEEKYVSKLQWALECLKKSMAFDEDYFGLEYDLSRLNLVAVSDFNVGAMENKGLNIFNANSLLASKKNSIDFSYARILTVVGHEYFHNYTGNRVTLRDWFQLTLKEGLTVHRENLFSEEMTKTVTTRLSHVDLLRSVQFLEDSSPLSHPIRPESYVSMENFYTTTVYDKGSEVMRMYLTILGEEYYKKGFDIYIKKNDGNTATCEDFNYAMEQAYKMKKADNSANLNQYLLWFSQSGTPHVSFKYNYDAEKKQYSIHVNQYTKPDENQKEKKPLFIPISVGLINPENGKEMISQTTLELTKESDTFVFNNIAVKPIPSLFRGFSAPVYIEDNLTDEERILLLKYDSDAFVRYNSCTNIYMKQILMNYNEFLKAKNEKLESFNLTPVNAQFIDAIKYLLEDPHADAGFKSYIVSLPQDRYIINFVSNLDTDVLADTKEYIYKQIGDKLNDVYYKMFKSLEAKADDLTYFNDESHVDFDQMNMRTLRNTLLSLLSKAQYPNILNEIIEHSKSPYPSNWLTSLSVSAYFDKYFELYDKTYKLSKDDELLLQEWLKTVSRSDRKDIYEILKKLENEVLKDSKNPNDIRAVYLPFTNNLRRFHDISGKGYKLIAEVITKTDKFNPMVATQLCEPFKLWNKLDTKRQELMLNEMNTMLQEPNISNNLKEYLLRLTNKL

[24] = target: Endoplasmic reticulum aminopeptidase 1 (Homo sapiens, UniProt Q9NZ08); test: inhibition of human ERAP1 enzyme activity – biochemical, cherry-pick, set 2, plate reader, dose response (AID 743314)
Endoplasmic reticulum aminopeptidase 1, sequence (Q9NZ08 whole entry): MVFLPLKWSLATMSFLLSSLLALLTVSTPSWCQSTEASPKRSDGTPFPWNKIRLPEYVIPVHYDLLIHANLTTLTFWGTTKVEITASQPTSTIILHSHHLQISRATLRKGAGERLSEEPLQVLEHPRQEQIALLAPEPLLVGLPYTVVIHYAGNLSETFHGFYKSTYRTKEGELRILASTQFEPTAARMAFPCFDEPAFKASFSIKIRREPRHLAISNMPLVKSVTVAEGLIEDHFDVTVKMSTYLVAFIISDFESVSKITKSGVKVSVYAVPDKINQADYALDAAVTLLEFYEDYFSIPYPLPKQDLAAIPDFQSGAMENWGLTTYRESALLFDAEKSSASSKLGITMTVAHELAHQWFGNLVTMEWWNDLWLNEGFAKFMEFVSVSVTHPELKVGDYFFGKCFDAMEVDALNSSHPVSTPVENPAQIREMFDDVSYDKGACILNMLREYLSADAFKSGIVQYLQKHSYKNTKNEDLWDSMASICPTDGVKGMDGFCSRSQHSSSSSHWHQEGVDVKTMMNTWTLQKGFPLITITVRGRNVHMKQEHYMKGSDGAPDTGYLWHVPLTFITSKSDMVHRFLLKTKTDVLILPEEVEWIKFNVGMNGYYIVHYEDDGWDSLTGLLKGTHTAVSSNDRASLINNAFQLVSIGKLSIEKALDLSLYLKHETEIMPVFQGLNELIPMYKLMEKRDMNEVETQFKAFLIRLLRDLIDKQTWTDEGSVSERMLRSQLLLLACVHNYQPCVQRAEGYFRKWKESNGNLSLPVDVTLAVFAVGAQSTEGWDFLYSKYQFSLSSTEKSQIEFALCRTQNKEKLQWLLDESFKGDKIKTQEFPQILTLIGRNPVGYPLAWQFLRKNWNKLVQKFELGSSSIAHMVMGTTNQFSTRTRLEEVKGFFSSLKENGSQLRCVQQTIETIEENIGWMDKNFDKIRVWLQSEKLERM

[25] = cytotoxicity in MITF-independent A375 cells – cell-based, CellTiter-Glo luminescence, dry powder, set 4, counter-screen for MITF inhibitor project, dose response (AID 624364); assay type: functional; settings: A-375;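 also: A375 melanoma cells are MITF independent so this is a counter screen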
[26] = viability loss in MITF-independent A375 cells – cell-based, CellTiter-Glo luminescence, dry powder, set 2, counter-screen for MITF inhibitor project, dose response (AID 624489); assay type: functional; settings: A-375;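 also: actives are compounds lowering A375 viability meaning general cytotoxicity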
[27] = HGIII-sPLA2 enzyme inhibition potency – biochemical, QFRET, IC50, dose response (AID 743457);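 also: green fluorescence rise as the enzyme cleaves BODIPY PC-A2 in liposomes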

With `O=C(CCl)c1ccc(Cl)cc1Cl` the IC50 [1] was 0.514 µM (active), the IC50 [2] was 1.25 µM (active) and the IC50 [3] was 4.3 µM (active). The IC50 [4] was 6.3 µM (inactive), the IC50 [5] was 2.98 µM (active) and the IC50 [6] was 0.53 µM (active). For the same molecule, the IC50 [7] was > 10 µM (inactive), the IC50 [8] was 8.52 µM (inactive) and the IC50 [9] was 2.07 µM (active). For the same molecule, the IC50 [10] was 1.1 µM (active).
In the case of `CCCNC[C@@H]1[C@@H](c2ccc(C3=CCCC3)cc2)[C@@H](CO)N1C(=O)C1CCCC1`, the AC50 [11] is reported as 4 µM (active) and the AC50 [12] is reported as 32.4 µM (active).
For `Cc1ccc(-c2ccc([C@@H]3[C@H](CO)N4CCCCN(C(=O)Nc5cccc(F)c5)C[C@@H]34)cc2)cc1`, the AC50 [13] was 7.83 µM (active), the AC50 [14] was 18.1 µM (active) and the AC50 [15] was > 70 µM (inactive).
In the case of `COc1cccc(NC(=O)N2[C@H](CO)[C@@H](c3ccccc3)[C@H]2CNCC(C)C)c1`, the AC50 [16] is reported as 1.44 µM (active), the AC50 [17] is reported as 43.5 µM (active) and the AC50 [11] is reported as 1.75 µM (active). For the same molecule, the AC50 [18] was 1.58 µM (active) and the AC50 [19] was 1.64 µM (active).
In the case of `N#C[C@@H]1[C@H](c2ccc(C#Cc3ccccc3F)cc2)[C@@H](CO)N1C(=O)C1CCC1`, the AC50 [20] is reported as 31.2 µM (active), the AC50 [21] is reported as 31.5 µM (active) and the AC50 [22] is reported as 29.9 µM (active). For the same molecule, the AC50 [23] was 22.5 µM (active).
With `COc1cccc(-c2ccc3c(c2)[C@H]2[C@H](CCN2S(=O)(=O)c2ccccc2F)[C@@H](CO)N3)c1` the AC50 (Paired box protein Pax-8) was 3.92 µM (active), the AC50 [13] was 19.1 µM (active) and the AC50 [14] was 31.4 µM (active). The AC50 [15] was 21.9 µM (active).
In the case of `CCCc1cc(=O)oc2c(CN(CC)CC)c(O)c(Cl)cc12`, the IC50 (Aminopeptidase N) is reported as 37 µM (active) and the AC50 [24] is reported as 7.13 µM (active).
In the case of `O=C1C(NS(=O)(=O)c2ccccc2)=C(N2CCCCC2)C(=O)c2ccccc21`, the AC50 [25] is reported as > 70 µM (inactive) and the AC50 [26] is reported as > 70 µM (inactive).
For `CCn1c(S)nnc1-c1cccn(Cc2ccc(Cl)cc2Cl)c1=O`, the IC50 [27] was > 122 µM (inactive).
